According to patent US20130029942A1, “COMPOUNDS AND THERAPEUTICAL USES THEREOF” (Myrexis, Inc., priority 2003, published 2013):
Read-outs that look alike come from different tables or passages of the source.

Tested on: T-47D cells
Experiment: Caspase cascade activation / induction of apoptosis in T-47D cells (fluorogenic N-(Ac-DEVD)-N'-ethoxycarbonyl-R110 substrate)
Assay type: cell-based, human
Conditions: for EC50: Homo sapiens, T47D
[1] = T-47D, 24 hr, read-out: T-47D (24 hr) EC50
[2] = T-47D, 48 hr, read-out: T-47D (48 hr) EC50
[3] = T-47D, 48 hr, benzohydrazide table, read-out: T-47D (48 hr) EC50
[4] = T-47D, 48 hr, benzohydrazide table

| Structure (SMILES) | EC50 [1] [nM] | EC50 [2] [nM] | other results |
| --- | --- | --- | --- |
| COc1ccc(N(C)c2nc(N)nc3[nH]cnc23)cc1 [Example 17, N^6-(4-Methoxy-phenyl)-N^6-methyl-9H-purine-2,6-diamine] | 7940 | – | – |
| CN(c1ccc(Oc2ccccc2)cc1)c1nc(Cl)nc2ccccc12 [Example 69, (2-Chloro-quinazolin-4-yl)-(4-phenoxy-phenyl)-methyl-amine] | – | > 1000 | – |
| COc1ccccc1Nc1nc(Cl)nc2ccccc12 [Example 33, (2-Chloro-quinazolin-4-yl)-(2-methoxy-phenyl)-amine] | – | > 10000 | – |
| COc1ccc(Nc2nc(Cl)nc3ccccc23)cn1 [Example 28, (2-Chloro-quinazolin-4-yl)-(6-methoxy-pyridin-3-yl)-amine] | > 10000 | > 10000 | – |
| COc1ccc(N(c2nc(Cl)nc3ccccc23)C(C)C)cc1 [Example 37, (2-Chloro-quinazolin-4-yl)-isopropyl-(4-methoxy-phenyl)-amine] | 2690 | – | – |
| CSc1nc(N(C)NC(=O)c2ccc(F)cc2)c2ccccc2n1 | – | – | EC50 [3]: 290 nM; T-47D (48 hr) Ratio [4]: 13.8 |
| CN(c1ccc2c(c1)OCO2)c1nc(Cl)nc2ccccc12 [Example 67, (2-Chloro-quinazolin-4-yl)-(3,4-methylenedioxyphenyl)-methyl-amine] | – | 38 | – |
| COc1ccc(N(C)c2nc(OC(C)C)nc3cccc(Cl)c23)cc1 [Example 64, (5-Chloro-2-isopropoxy-quinazolin-4-yl)-(4-methoxy-phenyl)-methyl-amine] | – | > 10000 | – |
| COc1ccc(C(=O)NN(C)c2nc(C(F)(F)F)nc3ccccc23)cc1 | – | – | EC50 [3]: 39 nM; T-47D (48 hr) Ratio [4]: 13.1 |
| CN(c1ccc(Cl)cc1)c1nc(Cl)nc2ccccc12 [Example 3, (2-Chloro-quinazolin-4-yl)-(4-chloro-phenyl)-methyl-amine] | 79 | – | – |
| Clc1nc(Nc2ccncc2)c2ccccc2n1 [Example 27, (2-Chloro-quinazolin-4-yl)-pyridin-4-yl-amine] | – | > 10000 | – |
| COc1ccc(N(C)c2nc(Cl)nc3ccccc23)cc1OC [Example 68, (2-Chloro-quinazolin-4-yl)-(3,4-dimethoxy-phenyl)-methyl-amine] | – | 4 | – |
| COc1ccc(N(C)c2nc(CN(C)C)nc3ccccc23)cc1 [Example 77, (2-Dimethylaminomethyl-quinazolin-4-yl)-(4-methoxy-phenyl)-methyl-amine] | 700 | 2110 | – |
| COc1cc2nc(Cl)nc(N(C)c3ccc(C)cc3)c2cc1OC [Example 22, (2-Chloro-6,7-dimethoxyquinazolin-4-yl)-(4-methyl-phenyl)-methyl-amine] | > 10000 | > 10000 | – |
| COC(=O)c1ccc(N(C)c2nc(Cl)nc3ccccc23)cc1 [Example 52, (2-Chloro-quinazolin-4-yl)-(4-methylcarboxyphenyl)-methyl-amine] | – | 6 | – |
| COc1ccc(N(c2nc(Cl)nc3ccccc23)C2CCCCC2)cc1 [Example 38, (2-Chloro-quinazolin-4-yl)-cyclohexyl-(4-methoxy-phenyl)-amine] | 2930 | – | – |
| CN(NC(=O)c1ccccc1F)c1nc(C(F)(F)F)nc2ccccc12 | – | – | EC50 [3]: 184 nM; T-47D (48 hr) Ratio [4]: 13.7 |
| COc1ccc(N(C)c2nc(CCl)nc3ccccc23)cc1 [Example 73, (2-Chloromethyl-quinazolin-4-yl)-(4-methoxy-phenyl)-methyl-amine] | 679 | 543 | – |
| COc1ccc(N(C)c2nc(N(C)c3ccc(OC)cc3)c3cc(Cl)ccc3n2)cc1 [Example 61, 6-Chloro-N^2,N^4-bis-(4-methoxy-phenyl)-N^2,N^4-dimethyl-quinazoline-2,4-diamine] | – | 4050 | – |
| COc1ccc(N(C)c2nc(NCCc3c[nH]cn3)nc3ccccc23)cc1 [Example 46, N^2-[2-(1H-Imidazol-4-yl)-ethyl]-N^4-(4-methoxy-phenyl)-N^4-methyl-quinazoline-2,4-diamine] | 2180 | 2270 | – |
| COc1ccc(Nc2nc(C)nc3ccccc23)cc1F [Example 79, (3-Fluoro-4-methoxy-phenyl)-(2-methyl-quinazolin-4-yl)-amine] | > 10000 | – | – |
| COc1ccc(N(C)c2nc(NO)nc3ccccc23)cc1 [Example 10, N^2-Hydroxyl-N^4-(4-methoxy-phenyl)-N^4-methyl-quinazoline-2,4-diamine] | – | 48 | – |
| COc1ccc(N(C)c2nc(Cl)nc3cc(Cl)ccc23)cc1 [Example 62, (2,7-Dichloro-quinazolin-4-yl)-(4-methoxy-phenyl)-methyl-amine] | – | 316 | – |
| CN(c1ccc(OC(F)(F)F)cc1)c1nc(Cl)nc2ccccc12 [Example 5, (2-Chloro-quinazolin-4-yl)-(4-trifluoromethoxy-phenyl)-methyl-amine] | 24 | – | – |
| [2H]c1c([2H])c(N(C)c2nc(C)nc3ccccc23)c([2H])c([2H])c1OC [Example 108, (4-Methoxy-phenyl-2,3,5,6-d4)-(2-methyl-quinazolin-4-yl)-methyl-amine] | – | – | EC50 (24 h, read-out: T-47D (24 hr) EC50 (nM)): 1 nM |
| CN(c1ccc(Cl)cc1)c1nc(N(C)c2ccc(Cl)cc2)c2ccccc2n1 [Example 19, N^2,N^4-Bis(4-chloro-phenyl)-N^2,N^4-dimethyl-quinazoline-2,4-diamine] | > 10000 | > 10000 | – |
| CCc1ccc(Nc2nc(C)nc3ccccc23)cc1 [Example 81, (4-Ethyl-phenyl)-(2-methyl-quinazolin-4-yl)-amine] | > 10000 | – | – |

Continued, in another order:

| EC50 [1] [nM] | EC50 [2] [nM] | Structure (SMILES) | other results |
| --- | --- | --- | --- |
| 556 | – | COc1cc(OC)c(N(C)c2nc(C)nc3ccccc23)c(OC)c1 [Example 88, (2-Methyl-quinazolin-4-yl)-(2,4,6-trimethoxy-phenyl)-methyl-amine] | – |
| 32 | – | COc1ccc(N(C)c2nc(C)nc3ccc(N=[N+]=[N-])cc23)cc1 [Example 111, (6-Azido-2-methyl-quinazolin-4-yl)-(4-methoxy-phenyl)-methyl-amine] | – |
| 4 | – | COc1ccc(N(C)c2nc(C)nc3cccc(OC)c23)cc1 [Example 91, (5-Methoxy-2-methyl-quinazolin-4-yl)-(4-methoxy-phenyl)-methyl-amine] | – |
| > 10000 | – | CN(c1nc(Cl)nc2ccccc12)[C@H]1CC[C@@H](C)CC1 [Example 132, (2-Chloro-quinazolin-4-yl)-(cis-4-methylcyclohexyl)-methyl-amine] | – |
| 130 | – | COc1ccc(N(C)c2nc(C)nc3cc(N=[N+]=[N-])ccc23)cc1 [Example 114, (7-Azido-2-methyl-quinazolin-4-yl)-(4-methoxy-phenyl)-methyl-amine] | – |
| – | > 10000 | CCOc1ccc(Nc2nc(Cl)nc3ccccc23)cc1 [Example 94, (2-Chloro-quinazolin-4-yl)-(4-ethoxy-phenyl)-amine] | – |
| 4660 | – | COc1ccc(N(c2nc(C)nc3ccccc23)C(F)F)cc1 [Example 139, Difluoromethyl-(4-methoxy-phenyl)-(2-methyl-quinazolin-4-yl)-amine] | – |
| 175 | – | Cc1nc(N(C)c2ccc(N)cc2)c2ccccc2n1 [Example 101, (4-Amino-phenyl)-(2-methyl-quinazolin-4-yl)-methyl-amine] | – |
| 30 | – | COc1ccc(N(C)c2nc(N=[N+]=[N-])nc3ccccc23)cc1 [Example 121, (2-Azido-quinazolin-4-yl)-(4-methoxy-phenyl)-methyl-amine] | – |
| 8 | – | Cc1nc(N(C)c2ccc(OC(F)F)cc2)c2ccccc2n1 [Example 84, (4-Difluoromethoxy-phenyl)-(2-methyl-quinazolin-4-yl)-methyl-amine] | – |
| 58 | – | COc1ccc(N(C)c2nc(N(C)C)nc3ccccc23)cn1 [Example 128, (2-Dimethylamino-quinazolin-4-yl)-(6-methoxy-pyridin-3-yl)-methyl-amine] | – |
| 408 | – | Cc1nc(N(C)c2ccc(F)cc2)c2ccccc2n1 [Example 124, (4-Fluoro-phenyl)-(2-methyl-quinazolin-4-yl)-methyl-amine] | – |
| > 10000 | – | Cc1nc(Nc2ccncc2)c2ccccc2n1 [Example 135, (2-Methyl-quinazolin-4-yl)-(pyridin-4-yl)-amine] | – |
| 5 | – | CCOc1ccc(N(C)c2nc(C)nc3ccccc23)cc1 [Example 107, (4-Ethoxy-phenyl)-(2-methyl-quinazolin-4-yl)-methyl-amine] | – |
| > 10000 | – | Cc1nc(N(C)c2ccc(C(=O)O)cc2)c2ccccc2n1 [Example 116, 4-(N-Methyl-N-(2-methylquinazolin-4-yl)amino)benzoic Acid] | – |
| 27 | – | COc1ccc(N(C)c2nc(C)nc3nccnc23)cc1 [Example 140, (4-Methoxy-phenyl)-(2-methyl-pteridin-4-yl)-methyl-amine] | – |
| > 10000 | – | COc1ccc(N(C)c2nc(C(=O)O)nc3ccccc23)cc1 [Example 118, 4-(N-(4-Methoxy-phenyl)-N-methylamino)quinazoline-2-carboxylic acid] | – |
| 5 | 16 | Cc1nc(N(C)c2ccc(N=[N+]=[N-])cc2)c2ccccc2n1 [Example 102, (4-Azido-phenyl)-(2-methyl-quinazolin-4-yl)-methyl-amine] | – |
| 274 | – | COc1ccc(N(C)c2nc(C)nc3ccc([N+](=O)[O-])cc23)cc1 [Example 109, (4-Methoxy-phenyl)-(2-methyl-6-nitro-quinazolin-4-yl)-methyl-amine] | – |
| 134 | – | Cc1nc(N(C)c2ccc(N)cc2Br)c2ccccc2n1 [Example 104, (4-Amino-2-bromo-phenyl)-(2-methyl-quinazolin-4-yl)-methyl-amine] | – |
| 25 | – | CCc1ccc(N(C)c2nc(C)nc3ccccc23)cc1 [Example 87, (4-Ethyl-phenyl)-(2-methyl-quinazolin-4-yl)-methyl-amine] | – |
| > 10000 | – | COc1ccc(Nc2nc(C)nc3ccccc23)cn1 [Example 95, (2-Methyl-quinazolin-4-yl)-(6-methoxy-pyridin-3-yl)-amine] | – |
| > 10000 | – | C[C@H]1CC[C@H](Nc2nc(Cl)nc3ccccc23)CC1 [Example 131, (2-chloro-quinazolin-4-yl)-(trans-4-methylcyclohexyl)-amine] | T-47D (24 hr) Ratio (caspase activity, net RFU compound / control) (T-47D, 24 hr): 1.2 |
